Measurements reported in the supplement of paper PMC11579375.

How the values were obtained:
Test in all cases: area under the viability dose-response curve (AUC) (AUC (arbitrary units, max 500 = no viability loss)); higher = less sensitive (higher viability)
Settings in all cases: exposure time: 120 h; concentration range: 0.1 nM - 10 µM, 6 doses
27F1 = tested on: 27F1 (fetal-I hepatoblastoma organoid with intermediate liver markers)
Method: (§1)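 Patient-derived hepatoblastoma tumor organoids (about 50 organoids per well, 384-well plates, medium with 5% BME) were treated with the PMC pediatric cancer drug library. Each drug was tested in duplicate at 6 concentrations (0.1 nM to 10 µM, 10-fold steps).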

3E = tested on: 3E (embryonal-type hepatoblastoma organoid)
Method: as §1

17E = tested on: 17E (embryonal-type hepatoblastoma organoid)
Method: as §1

96F1 = tested on: 96F1 (fetal-I hepatoblastoma organoid with intermediate liver markers)
Method: as §1

17F1 = tested on: 17F1 (fetal-I hepatoblastoma organoid with intermediate liver markers)
Method: as §1

8F1 = tested on: 8F1 (fetal-I hepatoblastoma organoid with intermediate liver markers)
Method: as §1

13E = tested on: 13E (embryonal-type hepatoblastoma organoid)
Method: as §1

135F2 = tested on: 135F2 (fetal-II hepatoblastoma organoid with high liver markers)
Method: as §1

13F2 = tested on: 13F2 (fetal-II hepatoblastoma organoid with high liver markers)
Method: as §1

22E = tested on: 22E (embryonal-type hepatoblastoma organoid)
Method: as §1

10F2 = tested on: 10F2 (fetal-II hepatoblastoma organoid with high liver markers)
Method: as §1

Structure (SMILES) | area under the viability dose-response curve (27F1) | area under the viability dose-response curve (3E) | area under the viability dose-response curve (17E) | area under the viability dose-response curve (96F1) | area under the viability dose-response curve (17F1) | area under the viability dose-response curve (8F1) | area under the viability dose-response curve (13E) | area under the viability dose-response curve (135F2) | area under the viability dose-response curve (13F2) | area under the viability dose-response curve (22E) | area under the viability dose-response curve (10F2)
CC(C)c1c(-c2ccccc2)nc2c(C#N)c[nH]n2c1=O [CPI-455] | > 500 | > 500 | > 500 | > 500 | 498 | > 500 | > 500 | > 500 | > 500 | > 500 | 469
CC[C@H](Nc1nc(NCc2cnc(C)cc2C)c2ncn(C(C)C)c2n1)[C@@H](C)O [CYC065] | 347 | 382 | 381 | 333 | 366 | 377 | 400 | 387 | 328 | 419 | 325
COc1cc2nccc(Oc3ccc(NC(=O)C4(C(=O)Nc5ccc(F)cc5)CC4)cc3)c2cc1OC [Cabozantinib] | > 500 | 457 | 439 | 475 | > 500 | 489 | 478 | 491 | 442 | 445 | 488
CC[C@@]1(O)C(=O)OCc2c1cc1n(c2=O)Cc2cc3ccccc3nc2-1 [Camptothecin] | 255 | 201 | 263 | 208 | 277 | 295 | 304 | 227 | 174 | 361 | 219
CNC(=O)c1ccc(-c2cnc3ncc(Cc4ccc5ncccc5c4)n3n2)cc1F [Capmatinib] | 465 | > 500 | 481 | 478 | 477 | 460 | 498 | 491 | 403 | 462 | > 500
CC(C)C[C@H](NC(=O)[C@H](CCc1ccccc1)NC(=O)CN1CCOCC1)C(=O)N[C@@H](Cc1ccccc1)C(=O)N[C@@H](CC(C)C)C(=O)[C@@]1(C)CO1 [Carfilzomib] | 332 | 242 | 247 | 355 | 269 | 350 | 362 | 194 | 217 | 347 | 323
COc1cc2c(Oc3ccc4[nH]c(C)cc4c3F)ncnc2cc1OCCCN1CCCC1 [Cediranib] | 431 | 390 | 425 | 454 | 459 | > 500 | 428 | 438 | 402 | 414 | 430
C[C@@H]1COCCN1c1cc(C2([S@](C)(=N)=O)CC2)nc(-c2cc[nH]c3nccc2-3)n1 [Ceralasertib] | 479 | 442 | 462 | 450 | 478 | > 500 | 468 | 448 | 450 | 462 | 475
Cc1cc(Nc2ncc(Cl)c(Nc3ccccc3S(=O)(=O)C(C)C)n2)c(OC(C)C)cc1C1CCNCC1 [Ceritinib] | 432 | 351 | 368 | 413 | 446 | 441 | 381 | 373 | 349 | 375 | 356
O=C(c1ccc(F)c(F)c1Nc1ccc(I)cc1F)N1CC(O)([C@@H]2CCCCN2)C1 [Cobimetinib] | 381 | 372 | 362 | 430 | 438 | 455 | 429 | 300 | 266 | 448 | 220
C[C@H](NC(=O)CCC(F)(F)F)C(=O)N[C@@H]1C(=O)N(CCO)c2ncccc2-c2ccccc21 [Crenigacestat] | 484 | 458 | 482 | 480 | > 500 | 498 | 482 | 479 | 418 | 474 | 389
CC1(COc2ccc3c(c2)ncn3-c2ccc3cccc(N4CCC(N)CC4)c3n2)COC1 [Crenolanib] | > 500 | 466 | 487 | 467 | 479 | > 500 | > 500 | 448 | 446 | > 500 | 480
C[C@@H](Oc1cc(-c2cnn(C3CCNCC3)c2)cnc1N)c1c(Cl)ccc(F)c1Cl [Crizotinib] | 441 | 379 | 405 | 462 | 431 | 477 | 415 | 422 | 398 | 420 | 369
Nc1ccn([C@@H]2O[C@H](CO)[C@@H](O)[C@@H]2O)c(=O)n1 [Cytarabine] | 427 | 370 | 425 | 378 | 393 | 479 | 425 | 403 | 377 | 433 | 481
CC(C)(C)c1nc(-c2cccc(NS(=O)(=O)c3c(F)cccc3F)c2F)c(-c2ccnc(N)n2)s1 [Dabrafenib] | 497 | 491 | 494 | 456 | > 500 | > 500 | 497 | 471 | 411 | 486 | 422
CN(C)/N=N/c1[nH]cnc1C(N)=O [Dacarbazine] | 494 | > 500 | > 500 | 491 | 486 | > 500 | > 500 | 496 | 487 | > 500 | > 500
Cc1nc(Nc2ncc(C(=O)Nc3c(C)cccc3Cl)s2)cc(N2CCN(CCO)CC2)n1 [Dasatinib] | 488 | 315 | 463 | 479 | 488 | 473 | 397 | 458 | 379 | 461 | 473
